The test system of test [1] is porcine epidemic diarrhea virus (PEDV). Nature of the test: Inhibition of PEDV replication in infected Vero E6 cells (vRNA in supernatant by qRT-PCR). It counts as cell-based. The settings on record: 10 μM and 2 μM, MOI 0.05, 24 h, FIG. 1. As to the method:
This Example evaluated whether bromophenol-pyrazoline compounds can inhibit replication of porcine coronavirus in Vero E6 cells infected with clinically isolated strains of porcine epidemic diarrhea virus (PEDV).
Specific operation: pre-seeded Vero E6 cells (5×10^4 cells/well) were respectively pretreated for 1 h with different concentrations of bromophenol-pyrazoline compounds to be tested (2 μM and 10 μM), and then infected with porcine coronavirus (PEDV; MOI: 0.05) for 2 h. Then, a virus-compound mixture was removed, and the cells were further cultured with a fresh medium containing the bromophenol-pyrazoline compound. After 24 hours, a cell supernatant was collected, and vRNA in the supernatant was analyzed by qRT-PCR. The treatment without a bromophenol-pyrazoline compound was used as a control.
(In general: Quantitative PCR measures a nucleic acid by following its amplification.)

For test [2], the system named is porcine transmissible gastroenteritis virus (TGEV). As to the kind of experiment: Inhibition of TGEV replication in infected Vero E6 cells (vRNA in supernatant by qRT-PCR). Type of test: cell-based. The settings on record: 10 μM and 2 μM, MOI 0.05, 24 h, FIG. 2. As to the method:
This Example evaluated whether bromophenol-pyrazoline compounds can inhibit replication of porcine coronavirus in Vero E6 cells infected with clinically isolated strains of porcine transmissible gastroenteritis virus (TGEV).
Specific operation: pre-seeded Vero E6 cells (5×10^4 cells/well) were respectively pretreated for 1 h with different concentrations of bromophenol-pyrazoline compounds to be tested (2 μM and 10 μM), and then infected with porcine coronavirus (TGEV; MOI: 0.05) for 2 h. Then, a virus-compound mixture was removed, and the cells were further cultured with a fresh medium containing the bromophenol-pyrazoline compound. After 24 hours, a cell supernatant was collected, and vRNA in the supernatant was analyzed by qRT-PCR. The treatment without a bromophenol-pyrazoline compound was used as a control.

For test [3], the system named is porcine epidemic diarrhea virus. As to the kind of experiment: Clinical trial in diseased pigs with epidemic diarrhea (PEDV infection). Type of test: in vivo, pig. To be noted: for Diarrhea Scoring Index: individual pigs, 0 formed manure, 1 thick not formed, 2 manure and water separation, 3 watery manure; for Effective rate / Number of deaths / Mortality rate: diseased pigs within 10 days of age; for Effective rate: 72 h, based on diarrhea scoring index; for Number of deaths: 72 h observation, treatment twice a day; for Mortality rate: piglet deaths at end of 72 h test. The protocol: Through the PCR detection of diseased pig tissues at Zhucheng Pig Farm in November 2020, the type of viral infection was determined.
Diseased pigs with epidemic diarrhea within 10 days of age were selected and randomly divided into 4 groups, i.e. untreated group, traditional Chinese medicine treatment group, compound 4 treatment group and lgY antibody treatment group, respectively. The traditional Chinese medicine treatment group was drenched with a compound decoction consisting of dandelion, Chinese violet, coptis, isatis root, etc., twice a day for 3 consecutive days. Compound 4 was taken at a dose of 25 mg/pig after being dissolved in a dextrose solution, twice a day. The lgY antibody treatment group was fed with chicken egg antibodies (lgY), twice a day. The untreated group, the traditional Chinese medicine treatment group and the lgY antibody treatment group were respectively drenched with the same dose of the glucose solution as the compound 4 treatment group. The pigs were breast-fed during treatment.
During the clinical treatment of the diseased pigs with epidemic diarrhea, the diarrhea indexes of the diseased pigs in the untreated group (6 pigs), the compound 4 treatment group (8 pigs) and the lgY antibody treatment group (6 pigs) were scored through sampling.

Where “and” joins values, the source holds several entries; their conditions need not be identical. Equal entries are not always repeated.

On to `CC(C)(C)c1ccc(Oc2ccc(C3=NN(C(N)=S)C(c4ccc(O)c(O)c4)C3)cc2)cc1` (centres unmarked) [Compound 4], for which the “inhibitory activity against replication of PEDV (viral RNA)” value in test [1] is reported as “strongest inhibitory activity”. Also, the “inhibitory activity against replication of TGEV (viral RNA)” value in test [2] is recorded as “strongest inhibitory activity”. Also, the alleviation of diarrhea result in test [3] (8 scored diseased pigs, 24 h after oral administration) was “significantly alleviated diarrhea”. Moreover, the curative ratio in test [3] (8 scored diseased pigs, 72 h after oral administration) worked out at 100%. Also, the “Diarrhea Scoring Index” value in test [3] (12 h after administration) was 3 (7×) and 2; in test [3] (24 h after administration), 2 (7×) and 1; in test [3] (48 h after administration), 0 (5×) and 1 (2×) and 2; in test [3] (72 h after administration) it was 0. In addition, the Effective rate in test [3] and in test [3] (listed as compound 4) was 100% in each case. For the same compound, the results for the Number of deaths in test [3] and in test [3] (listed as compound 4) were 0 and “no pig died”, respectively. Also, the Mortality rate in test [3] and in test [3] (listed as compound 4) was 0% each time.

(Values after patent US11752133B2, “Use of bromophenol-pyrazoline compounds in the treatment of porcine coronavirus diseases” (priority 2020, dated 2023).)
